US20090170813A1, “Hypophosphorous Acid Derivatives and their Therapeutical Applications” (priority 2005, published 2009)

Biological target: T1, rat mGlu4 (Rattus norvegicus, UniProt P31423)
T1 construct: expressed in transfected cells; host or cells: HEK293
Test: Agonist activity, [3H]phosphatidylinositol accumulation in HEK293 cells transfected with rat mGlu4 and Gqi9
Type: cell-based
Settings: Table 2, remark beside EC50
Protocol: Agonist activity of the compounds was tested on HEK293 cells transiently transfected with rat mGlu4 expressing plasmid pRKG4 and chimeric G-protein Gqi9 by electroporation, as described by Gomeza, J. et al, Mol. Pharmacol; 1996, 50, 923-930.
Cells were plated in 96-well culture plates and labeled overnight with [^3H]myoinositol. The day after, cells were washed three times with Krebs buffer, incubated for 10 min with LiCl 5 mM, and then incubated for 30 min in the absence (basal) or in the presence of the indicated compounds at 1 nM up to 1000 μM. The total amount of [^3H]phosphatidylinositol accumulated in the cells was determined after Dowex purification as previously by Goudet C, et al, Prod. Natl. Acad. Sci. USA 2004, 101, 378-383.
The response dosis curves were adjusted by using equatrier y=[(Ymax−ymin)/(1+(x/EC50)^n)]+ymin where EC50 is the concentration necessary for obtaining half of the maximal effect and n is Hill coefficient.

T1 sequence (P31423 33-912): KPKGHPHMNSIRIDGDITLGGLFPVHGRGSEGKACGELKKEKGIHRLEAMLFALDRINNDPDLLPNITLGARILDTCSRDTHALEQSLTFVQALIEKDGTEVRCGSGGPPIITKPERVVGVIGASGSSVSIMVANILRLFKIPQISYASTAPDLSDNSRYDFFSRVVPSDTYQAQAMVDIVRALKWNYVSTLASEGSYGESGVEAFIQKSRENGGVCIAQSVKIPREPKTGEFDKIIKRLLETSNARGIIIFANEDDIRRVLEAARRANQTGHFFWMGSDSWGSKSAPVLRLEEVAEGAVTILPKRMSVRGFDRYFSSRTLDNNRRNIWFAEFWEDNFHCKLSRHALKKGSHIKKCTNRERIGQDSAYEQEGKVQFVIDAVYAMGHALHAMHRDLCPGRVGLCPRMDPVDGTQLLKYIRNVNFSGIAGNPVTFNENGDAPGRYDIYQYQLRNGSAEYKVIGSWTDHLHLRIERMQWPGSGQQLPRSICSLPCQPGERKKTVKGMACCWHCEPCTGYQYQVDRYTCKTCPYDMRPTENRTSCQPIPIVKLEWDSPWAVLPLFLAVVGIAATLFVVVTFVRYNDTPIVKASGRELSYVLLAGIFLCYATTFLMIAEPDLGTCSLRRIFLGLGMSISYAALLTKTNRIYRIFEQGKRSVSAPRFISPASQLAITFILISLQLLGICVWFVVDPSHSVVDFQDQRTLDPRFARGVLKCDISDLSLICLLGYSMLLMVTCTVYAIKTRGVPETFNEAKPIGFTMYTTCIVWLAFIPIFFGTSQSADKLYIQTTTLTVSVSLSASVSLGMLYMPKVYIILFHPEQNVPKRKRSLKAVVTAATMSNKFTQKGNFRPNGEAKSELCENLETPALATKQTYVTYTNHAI

Q: How did the “mGlu4 agonist character (partial)” value turn out when `N[C@@H](CCP(=O)(O)C(O)C1CC1C(=O)O)C(=O)O` (single isomer, unassigned) [CS159] was run?
A: partial

Q: With `N[C@@H](CCP(=O)(O)C1COC(=O)C1)C(=O)O` (stereo partly drawn) [Compound 36, (3S)-4-[((3-amino-3-carboxy)propyl)(hydroxy)phosphinyl]furanone] as the compound, how does the “mGlu4 agonist character (partial)” value read?
A: partial

Same assay, conditions: Table 2; n in brackets; read-out: mGlu4 EC50 μM (n)

Q: `N[C@@H](CCP(=O)(O)C(O)C1CC1C(=O)O)C(=O)O` (single isomer, unassigned) [CS158] was tested. Which EC50 did it give?
A: 5.1 µM

Q: For `N[C@@H](CCP(=O)(O)C(O)C1CC1C(=O)O)C(=O)O` (single isomer, unassigned) [CS159], which EC50 is on record?
A: 12.9 µM

Q: For `N[C@@H](CCP(=O)(O)CCC(=O)O)C(=O)O` [Compound 7, (3S)-3-[((3-Amino-3-carboxy)propyl)(hydroxy)phosphinyl]propanoic Acid], which EC50 is on record?
A: 6.4 µM

Q: How did the EC50 turn out when `NC(CCP(=O)(O)C(CC(=O)O)C(=O)O)C(=O)O` (centres unmarked) [Compound 11] was run?
A: 59 µM

Q: `N[C@@H](CCP(=O)(O)CC(CC(=O)O)C(=O)O)C(=O)O` (stereo partly drawn) [Compound 19, (3S)-2-[(((3-amino-3-carboxy)propyl)(hydroxy)phosphinyl)-methyl]butane-1,4-dioic Acid] was tested. Which EC50 did it give?
A: 28.7 µM

Q: `N[C@@H](CCP(=O)(O)C(O)c1cccc(C(=O)O)c1)C(=O)O` (stereo partly drawn) [Compound 24, (3S)-3-[(((3-amino-3-carboxy)propyl)(hydroxy)phosphinyl)-hydroxymethyl]benzoic Acid] was tested. Which EC50 did it give?
A: 20.8 µM

Q: How did the EC50 turn out when `N[C@@H](CCP(=O)(O)CC(=O)O)C(=O)O` [Compound 26, (3S)-2-[((3-amino-3-carboxy)propyl)(hydroxy)phosphinyl]ethanoic Acid] was run?
A: 3.8 µM

Q: With `N[C@@H](CCP(=O)(O)C1COC(=O)C1)C(=O)O` (stereo partly drawn) [Compound 36, (3S)-4-[((3-amino-3-carboxy)propyl)(hydroxy)phosphinyl]furanone] as the compound, how does the EC50 read?
A: 11.5 µM

Q: Which EC50 does the source give for `N[C@@H](CCP(=O)(O)C(O)c1ccc(C(F)(F)F)c([N+](=O)[O-])c1)C(=O)O` (some centres unmarked) [Compound 38] here?
A: 0.28 µM

Q: With `N[C@@H](CCP(=O)(O)C(O)c1ccc(C(=O)O)cc1)C(=O)O` (stereo partly drawn) [Compound 40, (3S)-4-[(((3-amino-3-carboxy)propyl)(hydroxy)phosphinyl)-hydroxymethyl]benzoic Acid] as the compound, how does the EC50 read?
A: 31.8 µM

Q: How did the EC50 turn out when `N[C@@H](CCP(=O)(O)C(O)c1ccc(F)c([N+](=O)[O-])c1)C(=O)O` (some centres unmarked) [Compound 50] was run?
A: 1.02 µM

Q: For `Cc1ccc(C(O)P(=O)(O)CC[C@H](N)C(=O)O)cc1[N+](=O)[O-]` (some centres unmarked) [Compound 52], which EC50 is on record?
A: 1.69 µM

Q: How did the EC50 turn out when `N[C@@H](CCP(=O)(O)C(O)c1ccc(C(F)(F)F)cc1)C(=O)O` (some centres unmarked) [Compound 54] was run?
A: 22.2 µM

Q: Which EC50 does the source give for `N[C@@H](CCP(=O)(O)C(O)c1cccc([N+](=O)[O-])c1)C(=O)O` (stereo partly drawn) [Compound 56, (3S)-3-[(((3-amino-3-carboxy)propyl)(hydroxy)phosphinyl)-hydroxymethyl] 3-nitrobenzene] here?
A: 0.63 µM

Q: For `COc1ccc(C(O)P(=O)(O)CC[C@H](N)C(=O)O)cc1[N+](=O)[O-]` (stereo partly drawn) [Compound 58, (3S)-3-[(((3-amino-3-carboxy)propyl)(hydroxy)phosphinyl)-hydroxymethyl] 3-nitro-4-methoxybenzene], which EC50 is on record?
A: 2.89 µM

Q: Which EC50 does the source give for `N[C@@H](CCP(=O)(O)C(O)c1ccc(O)c([N+](=O)[O-])c1)C(=O)O` (stereo partly drawn) [Compound 62, (3S)-3-[(((3-amino-3-carboxy)propyl)(hydroxy)phosphinyl)-hydroxymethyl]-6-hydroxy-1-nitrobenzene] here?
A: 2 µM

Q: Which EC50 does the source give for `COc1cc(C(O)P(=O)(O)CC[C@H](N)C(=O)O)cc([N+](=O)[O-])c1O` (stereo partly drawn) [Compound 64, (3S)-3-[(((3-amino-3-carboxy)propyl)(hydroxy)phosphinyl)-hydroxymethyl]-5-methoxy-6-hydroxy-1-nitrobenzene] here?
A: 1.5 µM

Q: For `N[C@@H](CCP(=O)(O)C(O)c1ccc(Cl)c([N+](=O)[O-])c1)C(=O)O` (stereo partly drawn) [Compound 66, (3S)-3-[(((3-amino-3-carboxy)propyl)(hydroxy)phosphinyl)-hydroxymethyl]-6-chloro-1-nitrobenzene], which EC50 is on record?
A: 2.74 µM

Q: How did the EC50 turn out when `N[C@@H](CCP(=O)(O)C(O)c1ccc(N2CCOCC2)c([N+](=O)[O-])c1)C(=O)O` (stereo partly drawn) [Compound 68, (3S)-3-[(((3-amino-3-carboxy)propyl)(hydroxy)phosphinyl)-hydroxymethyl]-6-morpholino-1-nitro benzene] was run?
A: > 100 µM

Q: `N[C@@H](CCP(=O)(O)C(O)c1ccc([N+](=O)[O-])cc1[N+](=O)[O-])C(=O)O` (stereo partly drawn) [Compound 70, (3S)-4-[(((3-amino-3-carboy)propyl)(hydroxy)phosphinyl)-hydroxymethyl]-1,3-dinitrobenzene] was tested. Which EC50 did it give?
A: 1 µM

Q: With `N[C@@H](CCP(=O)(O)C(O)c1ccc([N+](=O)[O-])cc1)C(=O)O` (stereo partly drawn) [Compound 72, (3S)-4-[(((3-amino-3-carboxy)propyl)(hydroxy)phosphinyl)-hydroxymethyl] nitrobenzene] as the compound, how does the EC50 read?
A: 0.93 µM

Q: `CS(=O)(=O)c1ccc(C(O)P(=O)(O)CC[C@H](N)C(=O)O)cc1` (stereo partly drawn) [Compound 74, (3S)-4-[(((3-amino-3-carboxy)propyl)(hydroxy)phosphinyl)-hydroxymethyl]methylsulphonylbenzene] was tested. Which EC50 did it give?
A: > 100 µM

Q: How did the EC50 turn out when `N[C@@H](CCP(=O)(O)C(O)c1cc([N+](=O)[O-])cc([N+](=O)[O-])c1O)C(=O)O` (stereo partly drawn) [Compound 76, (3S)-3-[(((3-amino-3-carboxy)propyl)(hydroxy)phosphinyl)-hydroxymethyl] 2-hydroxy-1,5-dinitrobenzene] was run?
A: 2.3 µM

Same assay, conditions: at 100 μM

Q: For `NC(CP(=O)(O)CCC(=O)O)C(=O)O` (centres unmarked) [Compound 14], which “mGlu4 activity at 100 μM” value is on record?
A: inactive at 100 μM (1) . . .

Q: How did the “mGlu4 % max at 100 μM” value turn out when `N[C@@H](CCP(=O)(O)C(CC(=O)O)CC(=O)O)C(=O)O` [Compound 16, (3S)-3-[(((3-amino-3-carboxy)propyl)(hydroxy)phosphinyl)-methyl]pentane-1,5-dioic Acid] was run?
A: 10% max at 100 μM (1)

Q: With `N[C@@H](CCP(=O)(O)C(O)c1ccccc1C(=O)O)C(=O)O` (stereo partly drawn) [Compound 22, (3S)-2-[(((3-amino-3-carboxy)propyl)(hydroxy)phosphinyl)-hydroxymethyl]benzoic Acid] as the compound, how does the “mGlu4 activity at 100 μM” value read?
A: inactive at 100 μM

Q: For `N[C@@H](CCP(=O)(O)C(CC(=O)O)C(F)(F)F)C(=O)O` (stereo partly drawn) [Compound 28, (3S)-3-[((3-amino-3-carboxy)propyl)(hydroxy)phosphinyl]-3-trifluoromethylpropanoic Acid], which “mGlu4 % max at 100 μM” value is on record?
A: 60% max at 100 μM (1)

Q: How did the “mGlu4 activity at 100 μM” value turn out when `C/C(=C\C(=O)O)C(O)P(=O)(O)CC[C@H](N)C(=O)O` (stereo partly drawn) [Compound 31, (3S)-4-[((3-amino-3-carboxy)propyl)(hydroxy)phosphinyl]-4-hydroxy-3-methyl-2-butenoic Acid] was run?
A: inactive at 100 μM (1)

Q: With `N[C@@H](CCP(=O)(O)CCP(=O)(O)O)C(=O)O` [Compound 42, (3S)-3-[((3-Amino-3-carboxy)propyl)(hydroxy)phosphinyl]ethylphosphonate] as the compound, how does the “mGlu4 % max at 100 μM” value read?
A: 40% max at 100 μM (1)

Q: `N[C@@H](CCP(=O)(O)C(CC(=O)O)CP(=O)(O)O)C(=O)O` (some centres unmarked) [Compound 44] was tested. Which “mGlu4 % max at 100 μM” value did it give?
A: 33% max at 100 μM (1)

Q: `N[C@@H](CCP(=O)(O)Cc1cccc(C(=O)O)c1)C(=O)O` [Compound 46, (3S)-3-[(((3-amino-3-carboxy)propyl)(hydroxy)phosphinyl)-methyl]benzoic Acid] was tested. Which “mGlu4 % max at 100 μM” value did it give?
A: 33% max at 100 μM (1)

Q: How did the “mGlu4 % max at 100 μM” value turn out when `N[C@@H](CCP(=O)(O)CCCC(=O)O)C(=O)O` [Compound 48, (3S)-4-[((3-Amino-3-carboxy)propyl)(hydroxy)phosphinyl]butanoic Acid] was run?
A: 80% max at 100 μM (1)

Q: How did the “mGlu4 activity at 100 μM” value turn out when `NC(CCP(=O)(O)CCCCC(=O)O)C(=O)O` (centres unmarked) [Compound 60, 5-[((3-Amino-3-carboxy)propyl)(hydroxy)phosphinyl]pentanoic Acid] was run?
A: inactive at 100 μM (1)
